# Reference: patent US20220017877A1, “BILIRUBIN OXIDASE ACTIVITY IMPROVING METHOD, AND BILIRUBIN OXIDASE PRODUCT” (OZEKI CORPORATION, priority 2018, published 2022)
# Assay: ABTS initial absorbance (A436) reduction rate (Test Example 3)
# Type: physicochemical
# Details: in one minute at 25° C.; 1 mM (single compound) or 0.011 g nitrogen element in 100 mL (composition); pH 8.5
# Text: In the present specification, the absorbance of a solution containing ABTS (ABTS solution), at a wavelength of 436 nm, is defined as an ABTS initial absorbance (A436). In the present specification, the ABTS initial absorbance (A436) reduction rate (%) of the activity improving agent is defined to be a reduction rate (%) of the absorbance of a mixed solution, which contains the above ABTS solution and the above activity improving agent, at a wavelength of 436 nm in one minute, with respect to the ABTS initial absorbance (A436) (100%). Note that the ABTS solution is a solution in which the concentration of ABTS is adjusted such that the absorbance (A436) at a wavelength of 436 nm is approximately 1.3 at an optical path length of 1.0 cm. The value “approximately 1.3” here is intended to mean a value in a range in which 1.3 is obtained by rounding the value to the first decimal place. Test Examples described later will explain specific methods for measuring the absorbance (A436) of the ABTS solution at a wavelength of 436 nm and the ABTS initial absorbance (A436) reduction rate (%) of the activity improving agent. ABTS is an abbreviation for 2,2′-azinobis(3-ethylbenzothiazoline-6-sulfonic acid).
# In the present activity improving method, when the ABTS initial absorbance (A436) reduction rate (%) of the activity improving agent is measured, the concentration of the activity improving agent in the ABTS solution for measurement is set as follows: (a) the concentration is set to 1 mM, when the molecular weight of the activity improving agent is evident as in a case where the activity improving agent is made of a single compound; and (b) when the activity improving agent is a substance which is made of a composition having an inevident molecular weight, the content of nitrogen element is used as a reference and the concentration is set such that the content of nitrogen element derived from the activity improving agent is 0.011 g in 100 mL of the ABTS solution for measurement. Note that, in the above (b), the content of nitrogen element derived from the activity improving agent in the ABTS solution is a value calculated by the Kjeldahl method.
# The following describes a specific evaluation method. ABTS employed was an ABTS manufactured by Roche Diagnostics K.K. Further, the ABTS was dissolved in a 50 mM glycine-KOH (pH 8.5) buffer so that the concentration of the ABTS became 2.0 mg/mL. An ABTS solution was thus prepared. The absorbance of the ABTS solution at a wavelength of 436 nm (ABTS initial absorbance (A436)) was measured at an optical path length of 1.0 cm, by using a molecular absorption spectrometer Spectra Max Plus 384 (manufactured by Molecular Devices Japan K.K.). As a result the absorbance was approximately 1.3. Next, 5 μL of an activity improving agent solution or a comparative substance solution was added to 195 μL of the ABTS solution, so that a reaction solution for evaluating ABTS (hereinafter, also referred to as “reaction solution A”) was prepared. […]
smiles,measurement,value
O=C1O[C@H]([C@@H](O)CO)C(O)=C1O [L-ascorbic acid],A436 reduction rate (%),87.81%
"O=c1[nH]c(=O)c2[nH]c(=O)[nH]c2[nH]1 [Uric acid, uric acid]",A436 reduction rate (%),71.49%
